Assay results from US20260355199A1, “COMPOSITIONS AND METHODS FOR TREATING OR PREVENTING NONALCOHOLIC STEATOHEPATITIS (NASH), ANOREXIA, DEPRESSION, ENDOMETRIOSIS, AND OTHER DISEASES OR DISORDERS” (priority 2022, published 2026).

What was measured:
[1] = test system: activity-based anorexia (ABA) mice; conditions: temporal (3 days); cited from earlier work
TGF-β1, IL-1β, and IL-6 = experiment: TGF-β1, IL-1β and IL-6 expression in human MDMs; format: cell-based; conditions: TGF-β1-treated MDMs
From the text: Next, the studies examined effects of TET3 knockdown on expression of TGF-β1, IL-1β, and IL-6 in human MDMs. TGF-β1 has been mechanistically linked to the pathogenesis NSCLC, endometriosis, and NASH (Saito et al., 2018, Int J Mol Sci, 19; Young et al., 2017, Hum Reprod Update, 23:548-559; Cai et al., 2020, Cell Metab, 31:406-421; Baba et al., 2022, Front Pharmacol, 13:791272). It is also an important factor in the conditioned media responsible for inducing TET3 overexpression (FIG. 24H, FIG. 24J, and FIG. 24K through FIG. 24M). Therefore, MDMs were treated with TGF-β1 to mimic microenvironment-induced TET3 overexpression, followed by siRNA transfection and gene expression analyses. […] ELISA was not used to measure TGF-β1 because the transfection experiments were performed in the presence of exogenous TGF-β1. […]
Proinflammatory activation of peritoneal macrophages and MDMs was achieved by treatment with a combination of 10 ng/mL of LPS (Invitrogen, 00-4976-93) and 20 ng/mL of IFN-γ (R&D Systems, 485-MI-100). IL-1β and IL-6 protein levels in the supernatant of cultured mouse peritoneal macrophages were measured using ELISA kits (R&D Systems, MLB00C and M6000B-1). […]
IL-1β protein level of cell lysates and IL-6 protein level of cell supernatants were determined using the kits (Elabscience, E-EL-H0149c and E-EL-H6165, respectively) according to the manufacturer's protocols. […]

Lin28 = Lin28 expression in mouse peritoneal macrophages; format: cell-based; conditions: 10 μM, 48 h
Protocol: For cultured mouse peritoneal macrophages, cells were primed with 30 ng/ml of TGF-β1 (R&D Systems, 7666-MB0-005) for 48 h (to increase TET3 expression) before Bobcat339 treatment. Bobcat339 (or DMSO) was added at a final concentration of 10 μM, followed by RNA and protein extraction at time points indicated in the figure legends.
Total RNAs were extracted from cells using PureLink RNA Mini Kit. 0.5-1 μg total RNA was reverse transcribed to cDNA in a reaction volume of 20 μL using PrimeScript RT Reagent Kit. Real-time quantitative PCR was performed in a 15 μL reaction volume containing 0.5-1 μL of cDNA using SsoAdvanced Universal SYBR Green Supermix in a Bio-Rad iCycler. Gene expression levels were normalized against RPLP0.

Cas9+ mice = experiment: Post-fast refeeding study with leptin; format: in vivo, mouse; conditions: leptin 5 mg/kg i.p.
Protocol: To assess leptin effects on suppression of hunger-induced appetite, female Cas9+ mice injected with AAV or AAV-sgTet3 bilaterally into the ARC were fasted overnight for 22 h. On the second day, mouse leptin (L3772-1MG, Sigma Aldrich) was administrated at 5 mg/kg intraperitoneally at 10:00 and pre-weighed food was placed in the cage and monitored for the following 24 h. For ChIP studies, Cas9+ mice injected with AAV or AAVsgTet3 bilaterally into the ARC were fasted overnight for 22 h. On the second day, saline or leptin (5 mg/kg) was administrated intraperitoneally at 10:00. Two hours later, ARCs were isolated for ChIP-qPCR analysis. To examine leptin-induced protein-protein interactions, Cas9+ mice were fasted overnight for 22 h. On the second day, leptin was administrated at 5 mg/kg intraperitoneally at 10:00, and ARCs were isolated 2 h later, followed by co-IP studies.

Row | Compound | food intake [1] | TGF-β1, IL-1β, and IL-6 expression (TGF-β1, IL-1β, and IL-6) | Lin28 expression (Lin28) | hunger-induced appetite (Cas9+ mice; AAV control mice) | hunger-induced appetite (Cas9+ mice; TET3 knockdown (AAV-sgTet3) mice)
1 | Nc1nc(=O)n(-c2cccc(-c3ccccc3)c2)cc1Cl [Bobcat339, 4-Amino-1-[1,1′-biphenyl]-3-yl-5-chloro-2(1H)-pyrimidinone] | increase food intake | able to recapitulate these effects on all three factors | decreased |  | 
2 | leptin: adipose hormone; mouse leptin L3772-1MG or human leptin L4146-1MG, Sigma Aldrich |  |  |  | suppressed hunger-induced appetite in control mice | failed to do so in TET3 knockdown animals
